Laboratory results: patent US11932607B1, “4-(2,4,5-tris(4-chlorophenyl)-1H-imidazol-1-yl)benzoic acid as an antimicrobial compound” (KING FAISAL UNIVERSITY, priority 2023, dated 2024)

Columns and labels:
Type in all cases: cell-based
[1] = tested on: Staphylococcus aureus; test: Agar plate disc-diffusion, antibacterial activity (inhibition zone); details: Gram positive, DMSO control zone subtracted
Method: (§1) The agar plate disc-diffusion method was applied. […] The discs were then placed onto the surface of agar plates (nutrient agar for bacteria and Sabouraud's dextrose agar for fungi) seeded with the test organism. Each plate contained 15 mL of the agar medium, previously seeded with 0.2 mL of the broth culture of each organism pregrown for 18 hours. The plates were incubated at 37° C. for 48 hours, and 72 hours for fungi. The inhibition zones was measured in mm. Discs impregnated with DMSO were used as a control, and its inhibition zone was subtracted from the tested compound actual inhibition zone.

[2] = tested on: Pseudomonas aeruginosa; test: as above; details: Gram negative, DMSO control zone subtracted
Method: as §1

[3] = tested on: Bacillus cereus; test: as above; details: Gram positive, DMSO control zone subtracted
Method: as §1

[4] = tested on: Escherichia coli; test: as above; details: Gram negative, DMSO control zone subtracted
Method: as §1

[5] = tested on: Aspergillus flavus; test: Agar plate disc-diffusion, antifungal activity (inhibition zone); details: fungal, DMSO control zone subtracted
Method: as §1

[6] = tested on: Chrysosporium keratinophilum; test: as above; details: fungal, DMSO control zone subtracted
Method: as §1

[7] = A = concentration of comp. = 10,000 μL
[8] = B = concentration of comp. = 30,000 μL
[9] = C = concentration of comp. = 50,000 μL

O=C(O)c1ccc(-n2c(-c3ccc(Cl)cc3)nc(-c3ccc(Cl)cc3)c2-c2ccc(Cl)cc2)cc1 [V, 4-(2,4,5-tris(4-chlorophenyl)-1H-imidazol-1-yl)benzoic acid]
inhibition zone, Staphylococcus aureus, A [1, 7]: 15 mm
inhibition zone, Staphylococcus aureus, B [1, 8]: 22 mm
inhibition zone, Staphylococcus aureus, C [1, 9]: 26 mm
inhibition zone, Pseudomonas aeruginosa, A [2, 7]: 24 mm
inhibition zone, Pseudomonas aeruginosa, B [2, 8]: 27 mm
inhibition zone, Pseudomonas aeruginosa, C [2, 9]: 32 mm
inhibition zone, Bacillus Cereus, A [3, 7]: 24 mm
inhibition zone, Bacillus Cereus, B [3, 8]: 27 mm
inhibition zone, Bacillus Cereus, C [3, 9]: 35 mm
inhibition zone, Escherichia coli, A [4, 7]: 25 mm
inhibition zone, Escherichia coli, B [4, 8]: 28 mm
inhibition zone, Escherichia coli, C [4, 9]: 39 mm
inhibition zone, Aspergillus flavus, A [5, 7]: 21 mm
inhibition zone, Aspergillus flavus, B [5, 8]: 24 mm
inhibition zone, Aspergillus flavus, C [5, 9]: 35 mm
inhibition zone, Chrysosporium keratinophilum, A [6, 7]: 25 mm
inhibition zone, Chrysosporium keratinophilum, B [6, 8]: 28 mm
inhibition zone, Chrysosporium keratinophilum, C [6, 9]: 48 mm
